Test results taken from the supplement of paper PMC12463676, “Small-molecule dissolution of stress granules by redox modulation benefits ALS models” (Nature Chemical Biology, 2025).

Tests used:
[1] = compound: O=[As]([O-])(O)O.[K+] [potassium arsenate]; test: thermal stability z-score vs DMSO; higher = more thermally stabilized by treatment; conditions: HeLa; arsenate concentration 1 mM
Description: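 Cellular thermal proteome profiling in HeLa cells treated with 1 mM arsenate for 1 h (DMSO pretreatment), heated to ten temperatures (37-66.3 °C). Soluble protein was quantified by TMT mass spectrometry relative to DMSO controls; the thermal stability score was transformed to a z-score; mean of n = 3 experiments.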

[2] = compound: NC(=O)CCCCC1CCSS1 [lipoamide]; test: as above; conditions: HeLa, lipoamide concentration 100 µM
Description: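 Cellular thermal proteome profiling in HeLa cells. Cells were treated with 100 µM lipoamide for 1 h, with or without 1 mM arsenate for a further 1 h, then heated to ten temperatures (37-66.3 °C), and soluble protein was quantified by TMT mass spectrometry relative to 0.1% DMSO controls. The thermal stability score (sum of log2 fold changes minus the abundance score) was transformed to a z-score; mean of n = 3 experiments.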

[3] = arsenate co-treatment: 1 mM arsenate 1 h
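Also: each temperature applied for 3 min, abundance score taken as mean log2 fold change at the two lowest temperatures, z-score obtained by mean subtraction and division by SD.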

Chain of UniProt Q9UPN4 (Q9UPN4 whole entry): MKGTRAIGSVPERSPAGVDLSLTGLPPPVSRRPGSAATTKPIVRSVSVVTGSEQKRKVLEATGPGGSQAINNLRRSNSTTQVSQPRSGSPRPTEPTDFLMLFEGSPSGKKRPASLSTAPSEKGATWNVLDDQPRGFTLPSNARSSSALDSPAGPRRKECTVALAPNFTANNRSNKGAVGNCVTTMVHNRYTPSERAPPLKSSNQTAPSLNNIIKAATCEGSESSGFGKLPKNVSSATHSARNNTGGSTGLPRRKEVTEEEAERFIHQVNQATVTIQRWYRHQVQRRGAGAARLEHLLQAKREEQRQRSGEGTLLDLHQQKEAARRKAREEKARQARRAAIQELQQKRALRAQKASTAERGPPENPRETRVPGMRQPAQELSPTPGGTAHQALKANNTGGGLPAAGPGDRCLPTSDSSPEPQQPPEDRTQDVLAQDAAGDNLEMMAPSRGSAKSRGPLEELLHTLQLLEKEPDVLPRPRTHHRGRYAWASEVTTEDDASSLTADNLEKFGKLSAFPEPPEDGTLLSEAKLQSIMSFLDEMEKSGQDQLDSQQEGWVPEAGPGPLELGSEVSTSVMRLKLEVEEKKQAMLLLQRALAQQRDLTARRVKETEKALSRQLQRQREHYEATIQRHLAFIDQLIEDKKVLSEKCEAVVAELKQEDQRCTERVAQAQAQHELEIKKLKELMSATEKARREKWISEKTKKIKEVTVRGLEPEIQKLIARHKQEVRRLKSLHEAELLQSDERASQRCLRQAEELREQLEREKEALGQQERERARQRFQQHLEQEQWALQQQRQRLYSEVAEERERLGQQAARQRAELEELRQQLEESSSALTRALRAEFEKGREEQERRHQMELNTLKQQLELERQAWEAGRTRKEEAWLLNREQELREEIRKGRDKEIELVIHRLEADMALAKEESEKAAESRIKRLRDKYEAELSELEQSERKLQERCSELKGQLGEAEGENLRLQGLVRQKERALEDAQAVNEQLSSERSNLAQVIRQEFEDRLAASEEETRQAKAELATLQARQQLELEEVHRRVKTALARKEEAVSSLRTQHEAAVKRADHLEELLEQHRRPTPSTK
Chain of UniProt Q8TDD1 (Q8TDD1 whole entry): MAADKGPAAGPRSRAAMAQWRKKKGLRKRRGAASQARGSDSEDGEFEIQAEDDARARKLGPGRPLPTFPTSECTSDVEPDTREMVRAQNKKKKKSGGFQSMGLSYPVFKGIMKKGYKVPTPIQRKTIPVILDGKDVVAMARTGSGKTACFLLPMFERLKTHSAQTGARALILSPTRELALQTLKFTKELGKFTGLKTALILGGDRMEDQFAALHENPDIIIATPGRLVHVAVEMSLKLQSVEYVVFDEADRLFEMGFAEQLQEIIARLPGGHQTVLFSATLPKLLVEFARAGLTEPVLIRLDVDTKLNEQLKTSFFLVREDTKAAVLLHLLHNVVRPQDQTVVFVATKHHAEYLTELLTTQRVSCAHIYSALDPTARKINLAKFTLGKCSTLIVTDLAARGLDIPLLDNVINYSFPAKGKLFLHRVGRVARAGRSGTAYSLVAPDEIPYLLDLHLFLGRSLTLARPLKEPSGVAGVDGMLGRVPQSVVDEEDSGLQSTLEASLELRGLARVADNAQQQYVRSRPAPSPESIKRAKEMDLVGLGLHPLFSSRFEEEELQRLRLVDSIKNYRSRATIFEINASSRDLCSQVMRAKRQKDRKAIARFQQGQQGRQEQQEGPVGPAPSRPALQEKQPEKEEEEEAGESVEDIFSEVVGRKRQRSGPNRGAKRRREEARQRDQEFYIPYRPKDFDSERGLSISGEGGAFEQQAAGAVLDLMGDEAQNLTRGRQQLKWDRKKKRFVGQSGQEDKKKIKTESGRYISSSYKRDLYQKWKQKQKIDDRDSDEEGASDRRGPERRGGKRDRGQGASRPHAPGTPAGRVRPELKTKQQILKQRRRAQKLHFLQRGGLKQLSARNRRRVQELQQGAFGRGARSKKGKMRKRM
Chain of UniProt P49711 (P49711 whole entry): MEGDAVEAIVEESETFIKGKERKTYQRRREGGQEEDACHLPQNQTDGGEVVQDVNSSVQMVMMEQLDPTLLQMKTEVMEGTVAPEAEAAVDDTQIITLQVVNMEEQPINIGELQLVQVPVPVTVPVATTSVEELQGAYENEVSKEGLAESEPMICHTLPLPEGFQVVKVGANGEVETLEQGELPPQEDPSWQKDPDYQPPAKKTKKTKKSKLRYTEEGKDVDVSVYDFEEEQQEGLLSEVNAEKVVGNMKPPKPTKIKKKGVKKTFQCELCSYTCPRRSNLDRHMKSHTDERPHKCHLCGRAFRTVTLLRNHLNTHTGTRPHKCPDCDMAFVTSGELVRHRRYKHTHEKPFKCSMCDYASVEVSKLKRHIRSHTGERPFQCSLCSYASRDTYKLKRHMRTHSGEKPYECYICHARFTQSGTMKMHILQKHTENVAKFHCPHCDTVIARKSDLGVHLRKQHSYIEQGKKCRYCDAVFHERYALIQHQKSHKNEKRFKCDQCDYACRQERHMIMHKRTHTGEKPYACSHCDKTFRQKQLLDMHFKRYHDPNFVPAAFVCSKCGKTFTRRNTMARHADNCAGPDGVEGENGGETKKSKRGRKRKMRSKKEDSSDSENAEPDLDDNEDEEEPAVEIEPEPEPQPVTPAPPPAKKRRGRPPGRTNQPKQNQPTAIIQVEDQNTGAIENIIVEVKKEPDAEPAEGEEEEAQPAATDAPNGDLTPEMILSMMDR
Chain of UniProt Q9NV70 (Q9NV70 whole entry): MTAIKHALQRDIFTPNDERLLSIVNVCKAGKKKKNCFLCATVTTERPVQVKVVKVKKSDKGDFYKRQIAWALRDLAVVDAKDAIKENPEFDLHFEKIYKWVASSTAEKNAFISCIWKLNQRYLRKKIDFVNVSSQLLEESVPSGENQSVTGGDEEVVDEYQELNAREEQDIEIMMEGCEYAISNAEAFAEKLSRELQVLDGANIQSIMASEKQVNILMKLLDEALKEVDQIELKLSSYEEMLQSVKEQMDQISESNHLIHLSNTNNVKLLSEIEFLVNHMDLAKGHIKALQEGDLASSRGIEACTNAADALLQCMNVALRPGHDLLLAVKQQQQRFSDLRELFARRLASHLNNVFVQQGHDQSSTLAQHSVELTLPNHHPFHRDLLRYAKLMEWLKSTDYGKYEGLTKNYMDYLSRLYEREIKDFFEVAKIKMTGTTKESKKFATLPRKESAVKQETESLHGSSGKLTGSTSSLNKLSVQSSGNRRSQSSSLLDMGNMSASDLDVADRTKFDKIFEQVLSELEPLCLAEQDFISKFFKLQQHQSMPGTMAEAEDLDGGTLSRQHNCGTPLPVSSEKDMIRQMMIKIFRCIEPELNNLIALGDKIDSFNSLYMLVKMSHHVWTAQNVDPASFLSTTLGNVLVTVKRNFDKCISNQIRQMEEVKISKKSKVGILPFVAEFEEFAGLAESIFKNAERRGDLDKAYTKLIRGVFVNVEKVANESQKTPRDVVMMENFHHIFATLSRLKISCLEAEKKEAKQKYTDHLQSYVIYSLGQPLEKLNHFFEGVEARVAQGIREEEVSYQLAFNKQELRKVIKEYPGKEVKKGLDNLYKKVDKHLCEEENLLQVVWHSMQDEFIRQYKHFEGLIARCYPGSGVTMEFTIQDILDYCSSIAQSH
Chain of UniProt Q96C57 (Q96C57 whole entry): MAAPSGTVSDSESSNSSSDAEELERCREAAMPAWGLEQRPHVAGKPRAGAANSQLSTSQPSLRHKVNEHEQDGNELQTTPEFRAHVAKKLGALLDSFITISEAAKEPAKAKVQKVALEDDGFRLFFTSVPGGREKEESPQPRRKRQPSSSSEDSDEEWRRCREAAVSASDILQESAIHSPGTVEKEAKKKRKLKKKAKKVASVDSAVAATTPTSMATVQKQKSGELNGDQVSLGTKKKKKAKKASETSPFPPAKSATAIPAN
Chain of UniProt Q9BT22 (Q9BT22 whole entry): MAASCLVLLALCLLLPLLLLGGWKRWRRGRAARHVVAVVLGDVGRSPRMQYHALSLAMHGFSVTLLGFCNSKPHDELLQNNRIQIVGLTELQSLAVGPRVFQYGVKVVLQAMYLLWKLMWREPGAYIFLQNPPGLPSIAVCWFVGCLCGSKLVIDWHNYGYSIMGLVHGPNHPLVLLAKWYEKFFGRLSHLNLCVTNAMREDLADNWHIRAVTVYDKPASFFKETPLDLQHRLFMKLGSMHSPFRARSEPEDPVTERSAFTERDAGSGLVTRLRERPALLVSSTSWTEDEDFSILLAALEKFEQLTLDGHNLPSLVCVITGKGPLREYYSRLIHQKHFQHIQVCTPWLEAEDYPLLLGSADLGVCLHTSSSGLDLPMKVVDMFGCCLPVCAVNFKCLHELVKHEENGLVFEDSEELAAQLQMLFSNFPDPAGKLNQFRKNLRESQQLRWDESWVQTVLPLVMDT
Chain of UniProt Q9BRX5 (Q9BRX5 whole entry): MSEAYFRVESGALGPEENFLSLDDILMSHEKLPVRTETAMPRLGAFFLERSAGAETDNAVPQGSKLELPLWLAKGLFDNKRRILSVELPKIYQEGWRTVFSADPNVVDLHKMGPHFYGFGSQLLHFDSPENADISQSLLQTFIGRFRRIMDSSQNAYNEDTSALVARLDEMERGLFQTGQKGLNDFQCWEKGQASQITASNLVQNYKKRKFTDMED
Chain of UniProt P09525 (P09525 whole entry): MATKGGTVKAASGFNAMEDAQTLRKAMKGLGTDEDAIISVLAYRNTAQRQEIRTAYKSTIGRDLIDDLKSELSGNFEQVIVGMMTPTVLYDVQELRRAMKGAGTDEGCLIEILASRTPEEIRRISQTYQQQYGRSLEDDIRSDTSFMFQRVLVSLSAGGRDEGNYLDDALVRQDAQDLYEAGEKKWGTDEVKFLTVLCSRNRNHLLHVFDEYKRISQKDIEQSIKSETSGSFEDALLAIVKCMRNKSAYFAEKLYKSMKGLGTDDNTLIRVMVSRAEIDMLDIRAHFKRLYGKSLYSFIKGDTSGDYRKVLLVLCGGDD
Chain of UniProt O43169 (O43169 whole entry): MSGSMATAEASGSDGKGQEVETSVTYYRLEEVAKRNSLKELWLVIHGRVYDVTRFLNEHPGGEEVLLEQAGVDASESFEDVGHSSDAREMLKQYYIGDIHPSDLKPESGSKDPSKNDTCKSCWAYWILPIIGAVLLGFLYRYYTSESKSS

Target | thermal stability z-score [1] | thermal stability z-score [2, 3] | thermal stability z-score ([2]; arsenate co-treatment: none)
PRMT5 (UniProt O14744) | -0.408 | 0.459 | 0.231
SSBP4 (UniProt Q9BWG4) | -0.402 | 1.24 | 1.21
ASNA1 (UniProt O43681) | -0.178 | -0.234 | -0.285
AP1G1 (UniProt O43747) | 0.813 | -0.704 | -0.404
MAGEA1 (UniProt P43355) | 1.03 | 0.195 | 0.0019
ENOPH1 (UniProt Q9UHY7) | -0.296 | 0.0377 | -0.118
MTX3 (UniProt Q5HYI7) | -0.0757 | 0.929 | 0.179
NOTCH1 (UniProt P46531) | -0.0336 | 0.143 | 0.13
MTUS1 (UniProt Q9ULD2) | 0.0626 | -0.0967 | 0.692
HS2ST1 (UniProt Q7LGA3) | 0.457 | 0.123 | -0.171
SAR1A (UniProt Q9NR31) | 0.248 | 0.174 | 0.266
CEP131 (UniProt Q9UPN4) | 0.215 | -0.287 | -0.195
TJAP1 (UniProt Q5JTD0) | -0.0307 | -1.54 | -0.576
PI4KA (UniProt P42356) | -0.732 | -0.343 | -0.333
WARS (UniProt P23381) | 0.737 | 0.561 | 0.612
PTDSS2 (UniProt Q9BVG9) | -0.0291 | 0.2 | -0.0317
ATP11C (UniProt Q8NB49) | -1.13 | -0.348 | 0.254
NUCB1 (UniProt Q02818) | -0.222 | -0.169 | -0.102
RBM15 (UniProt Q96T37) | -0.321 | -0.454 | -0.0697
GINS3 (UniProt Q9BRX5) | -0.288 | 0.275 | -0.19
C12ORF43 (UniProt Q96C57) | -1.08 | 0.941 | -0.0235
RAB10 (UniProt P61026) | 0.276 | 0.387 | 0.379
SUPV3L1 (UniProt Q8IYB8) | -0.478 | -0.171 | -0.116
CAMKMT (UniProt Q7Z624) | -0.235 | 0.0977 | -0.0333
CYB5B (UniProt O43169) | 0.322 | 1.05 | 0.411
NLRX1 (UniProt Q86UT6) | -0.0617 | 0.128 | 0.211
ZFAND1 (UniProt Q8TCF1) | -0.247 | 0.233 | 0.29
ALG1 (UniProt Q9BT22) | 0.115 | -0.337 | 0.0286

Target | thermal stability z-score [1] | thermal stability z-score [2, 3] | thermal stability z-score ([2]; arsenate co-treatment: none)
ANXA4 (UniProt P09525) | 0.225 | 1.42 | 1.61
B4GALT5 (UniProt O43286) | -0.0207 | -0.000852 | -0.338
PFKL (UniProt P17858) | 0.476 | 0.344 | 0.367
GGA3 (UniProt Q9NZ52) | -0.298 | -0.3 | 0.0568
DDX54 (UniProt Q8TDD1) | -0.136 | -0.154 | -0.015
DPH5 (UniProt Q9H2P9) | -0.179 | 0.634 | 1.89
GALT (UniProt P07902) | 0.174 | -0.362 | -0.325
CHD4 (UniProt Q14839) | -0.759 | 0.305 | 0.561
MTX2 (UniProt O75431) | 0.0221 | -0.388 | -0.267
CTCF (UniProt P49711) | -1.14 | 0.761 | -0.0166
VPS8 (UniProt Q8N3P4) | -0.17 | -0.0735 | -0.283
HMOX2 (UniProt P30519) | 0.895 | 0.676 | 1.34
PTER (UniProt Q96BW5) | -0.311 | -0.116 | -0.966
SLC30A1 (UniProt Q9Y6M5) | -0.906 | 0.17 | 0.0172
EXOC1 (UniProt Q9NV70) | 0.0191 | -0.268 | 0.043
MCCC2 (UniProt Q9HCC0) | -0.197 | 0.322 | 0.156
NAA10 (UniProt P41227) | 0.405 | 1.16 | 0.982
RNF31 (UniProt Q96EP0) | -0.255 | -0.101 | 0.0489
UGP2 (UniProt Q16851) | 0.872 | 0.388 | -0.0879
CCNDBP1 (UniProt O95273) | 0.133 | 0.104 | -0.0265
UBE2E2 (UniProt Q96LR5) | 4.13 | -0.607 | -0.124
RAD54L2 (UniProt Q9Y4B4) | -0.235 | -0.0715 | 0.0462
CWF19L2 (UniProt Q2TBE0) | -0.098 | 0.0402 | -0.0633
TNFAIP2 (UniProt Q03169) | 0.97 | 0.331 | 0.638
CHAC2 (UniProt Q8WUX2) | 0.455 | -0.0361 | 0.0338
DDX23 (UniProt Q9BUQ8) | -0.836 | 0.326 | 0.137
ELOVL5 (UniProt Q9NYP7) | 0.0723 | -0.00466 | -0.551
